Values of other authors as cited in patent US20060110448A1, “Combination of a macrolide and a local anesthetic for the treatment of dermatological diseases” (priority 2003, published 2006).

Test system: rat model of allogeneic kidney transplantation
Details: oral administration, suppression of systemic immune response

C=CC[C@@H]1/C=C(\C)C[C@H](C)C[C@H](OC)[C@H]2O[C@@](O)(C(=O)C(=O)N3CCCC[C@H]3C(=O)O[C@H](/C(C)=C/[C@@H]3CC[C@@H](O)[C@H](OC)C3)[C@H](C)[C@@H](O)CC1=O)[C@H](C)C[C@@H]2OC [tacrolimus]
minimum effective dose (MED): 14 mg/kg
